From PubChem BioAssay AID449750 (Broad Institute, 2010)
Activity calls are given as the source filed them. No rule for the calls is given here.

Assay: non-covalent RecA intein splicing inhibitors, dose response, biochemical, cell-free, fluorescence, secondary screen (AID 449750)

## CN1CCN(c2ccc([N+](=O)[O-])c3no[n+]([O-])c23)CC1
  AC50: > 38 µM (inactive)

## C=CCn1c(N)c(C(=O)Nc2cccc(C)c2)c2nc3ccccc3nc21
  AC50: 14.4 µM

## COC(=O)Cc1[nH]nc2c1C1(CCSCC1)C(C#N)=C(N)O2
  AC50: > 12 µM (inactive)

## CCCCCCCCCCOC(=O)Cn1c(COc2ccc(C)cc2)[n+](C)c2ccccc21
  AC50: 8.88 µM

## O=C(CCl)N1CCN(S(=O)(=O)c2ccc3ccccc3c2)CC1
  AC50: 6.51 µM

## CC1=NN(c2ccc(C)c(C)c2)C(=O)C1C(c1cccc(O)c1)C1C(=O)N(c2ccc(C)c(C)c2)N=C1C (stereo not given)
  AC50: 3.38 µM

## COCC(C)NC(=O)CCS(=O)(=O)c1nc(-c2ccc(OC)cc2)cc(C(F)(F)F)n1 (stereo not given)
  AC50: > 38 µM (inactive)

## CN1CCN(C2=C(Cl)C(=O)N(c3ccc(Cl)cc3)C2=O)CC1
  AC50: 3.49 µM

## N#CC1=C(N)Oc2n[nH]c(-c3ccc(F)cc3)c2C1c1cccc(OC(=O)N2CCOCC2)c1 (stereo not given)
  AC50: 26.2 µM

## OC(CNCCC1C=Nc2ccccc21)Cn1c2ccc(Cl)cc2c2cc(Cl)ccc21 (stereo not given)
  AC50: 8.48 µM

## CCCc1[nH]nc2c1C(c1ccc(OC(=O)N3CCOCC3)cc1)C(C#N)=C(N)O2 (stereo not given)
  AC50: > 38 µM (inactive)

## O=C(Nc1cccc(F)c1)N1CCC(c2ccccc2)CC1
  AC50: > 38 µM (inactive)

## CC(=O)Nc1ccc(NC(=O)CSc2ncc(C(=O)Nc3ccc(F)cc3)c(=O)n2C)cc1
  AC50: > 38 µM (inactive)

## CCCCCCN(C(=O)CCl)c1ccccc1
  AC50: 3.5 µM

## CC(C)c1nnc(NC(=O)c2nc(S(=O)(=O)Cc3ccc(F)cc3)ncc2Cl)s1
  AC50: > 38 µM (inactive)

## CN1CCc2nc(SCC(=O)Nc3ccc(F)cc3)c(C#N)cc2C1
  AC50: > 38 µM (inactive)

## O=C(CSc1ncnc2c1nnn2Cc1ccccc1F)N1CCN(c2ccccc2)CC1
  AC50: > 38 µM (inactive)

## O=C(O)CN1C(=O)/C(=C\c2ccc(OC(=O)c3ccco3)cc2)SC1=S
  AC50: > 38 µM (inactive)

## CC(C)(C)c1cc(NC(=O)CCl)n(-c2ccccc2)n1
  AC50: 22.2 µM

## Cc1cc(OC(=O)c2ccccc2)n(CCC#N)n1
  AC50: 17.7 µM

## CC(C)[C@H](NC(=O)OC(C)(C)C)c1nnc(S(=O)(=O)Cc2c(F)cccc2Cl)o1
  AC50: > 38 µM (inactive)

## [O-]C1=N/[N+](=C/c2ccc(Cl)c(Cl)c2)CC1
  AC50: > 38 µM (inactive)

## Cc1c(Cl)cccc1NC(=O)CSCc1cc(=O)[nH][nH]1
  AC50: 33.3 µM

## CC(=O)n1cc(N(C(=O)CCl)c2ccc([N+](=O)[O-])cc2)c2ccccc21
  AC50: 4.74 µM

## S=C(Nc1ccc2nsnc2c1)N1CCCCCC1
  AC50: 9.37 µM

## O=C(N/N=C1\C/C(=N\NC(=O)c2ccncc2)c2ccccc21)c1ccncc1
  AC50: 17.3 µM

## N#Cc1ncc(Cc2ccccc2)nc1C#N
  AC50: > 38 µM (inactive)

## Cc1ccc(NC2=C(N3CCCCC3)C(=O)c3ccccc3C2=O)cc1
  AC50: 8.12 µM

## COc1cc(/C=C2/C(=O)N(c3ccccc3)N=C2C)ccc1OS(=O)(=O)c1ccccc1
  AC50: 3.34 µM

## CC(C)(c1ccccc1)c1ccc(OCC2CO2)cc1 (stereo not given)
  AC50: 8.68 µM

## CCOc1ccc(N2C(=O)/C(=C\c3ccc(OC)c(O)c3)S(=O)(=O)C2c2cccc([N+](=O)[O-])c2)cc1 (stereo not given)
  AC50: > 38 µM (inactive)

## COc1c(O)ccc2c1CN1CCc3cc4c(cc3C1C2)OCO4 (stereo not given)
  AC50: > 38 µM (inactive)

## O=c1c(Cl)c(Cl)cnn1Cc1ccc(F)cc1
  AC50: 35.3 µM

## Cn1c2ccccc2c2cc(C(=O)NNC(=O)CCl)sc21
  AC50: 16.2 µM

## O=C(Oc1cccc(OC(=O)c2ccco2)c1)c1ccco1
  AC50: 5.11 µM

## O=C(NCc1ccc2c(c1)OCO2)c1nc(S(=O)(=O)Cc2ccccc2)ncc1Cl
  AC50: > 38 µM (inactive)

## CCOC(=O)CSc1nc2sc3c(c2c(=O)n1C1CCCCC1)CCN(C)C3
  AC50: > 38 µM (inactive)

## Cn1c(O)c(C2=NN(C(=O)CCl)C(c3ccccc3)C2)c(=O)n(C)c1=O (stereo not given)
  AC50: 26.2 µM

## COc1ccccc1/C=C/C1(C(=O)NC2CCCC2)CC(=O)N1c1ccc(F)cc1 (stereo not given)
  AC50: 9.42 µM

## O=S(=O)(Nc1ccc(O)c2ccccc12)c1ccc(F)cc1
  AC50: 0.377 µM

## CCOc1ccc(C2C(C#N)=C(N)Oc3n[nH]c(C)c32)cc1OC(=O)C1CC1 (stereo not given)
  AC50: > 38 µM (inactive)

## COC(=O)Cc1[nH]nc2c1C(c1c[nH]c3ccccc13)C(C#N)=C(N)O2 (stereo not given)
  AC50: > 38 µM (inactive)

## COC(=O)c1sc(-c2ccc(Cl)cc2)cc1NC(=O)/C=C/C(=O)O
  AC50: 9.69 µM

## Cc1cc(C)n2nc(CNS(=O)(=O)c3c(F)c(F)c(F)c(F)c3F)nc2n1
  AC50: > 38 µM (inactive)

## COc1ccc(NC(=O)/C(Cl)=C(/Cl)S(=O)(=O)Cc2ccc(C)cc2)cn1
  AC50: 35.2 µM

## COC(=O)c1c(C)oc2ccc(N(C(=O)c3ccncc3)S(=O)(=O)c3ccc4ccccc4c3)cc12
  AC50: > 38 µM (inactive)

## Cc1nnc(N/N=C\c2ccc(-c3ccccc3[N+](=O)[O-])o2)n1N
  AC50: > 38 µM (inactive)

## O=C(c1ccc(N2CCN(CCO)CC2)nc1)N1CCOCC1
  AC50: > 38 µM (inactive)

## Cc1cc(=O)n(CCCc2ccccc2)[nH]1
  AC50: 36.5 µM

## O=S(=O)(CCSc1nc2ccccc2s1)c1nc2ccccc2s1
  AC50: 27.3 µM

## COC(=O)c1nc(-c2ccc3c(n2)C(=O)C(N)=C(OC)C3=O)c(N)c(-c2ccc(OC)c(OC)c2O)c1C
  AC50: 0.763 µM

## COC(=O)Cc1[nH]nc2c1C(c1ccc(O)c(OC)c1)C(C#N)=C(N)O2 (stereo not given)
  AC50: 28.4 µM

## Cc1nc(COC(=O)c2cc(O)c3ccccc3c2O)cs1
  AC50: 15.1 µM

## O=C1C(=O)c2ccccc2C([O-])=C1[n+]1ccccc1
  AC50: 28.5 µM

## COc1cc(NC(C)CCCN)c2ncccc2c1Oc1ccccc1 (stereo not given)
  AC50: 15.2 µM

## CCOc1cc(C(c2c(C)[nH][nH]c2=O)c2c(C)[nH][nH]c2=O)ccc1OC(=O)c1cccc([N+](=O)[O-])c1
  AC50: 6.48 µM

## CCOC(=O)c1nc(C)n(-c2ccc(Cl)cc2)n1
  AC50: > 38 µM (inactive)

## CCCCCCCCCCn1c2c(c(=N)c3c1CCC3)CCC2
  AC50: > 38 µM (inactive)

## Oc1[nH]c(=S)sc1C=C1N=c2ccccc2=N1
  AC50: > 38 µM (inactive)

## O=C1C=C(Nc2cccc3cccnc23)c2ccccc2C1=O
  AC50: 24.2 µM

## CCOCC(=O)NCc1ccc2c(c1)cc(C)n2C
  AC50: > 38 µM (inactive)

## Cc1[nH]n(-c2ccccc2)c(=O)c1C(C[N+](=O)[O-])c1ccccc1Cl (stereo not given)
  AC50: 7.38 µM

## COc1ccc(NC(=O)/C(C#N)=C/c2ncc([N+](=O)[O-])n2C)c(OC)c1
  AC50: > 38 µM (inactive)

## COc1ccc(NC(=O)/C(Cl)=C(/Cl)S(=O)Cc2ccccc2)cn1 (stereo not given)
  AC50: > 38 µM (inactive)

## O=C(Cc1cc(=O)[nH][nH]1)N/N=C/c1cccc(Cl)c1Cl
  AC50: 20 µM

## Oc1cc(O)c2c(c1)O[C@H](c1ccc(O)c(O)c1)[C@@H](O)C2
  AC50: > 38 µM (inactive)

## O=C(CCCN1C(=O)/C(=C/c2ccccc2)SC1=S)Nc1ccc(C(=O)O)c(O)c1
  AC50: 33.8 µM

## Clc1ccc(-c2nnc(Sc3nc4ccccc4o3)c3ccccc23)cc1
  AC50: 7.15 µM

## Cc1cccc(Nc2nc(NCc3ccco3)c3ccccc3n2)c1
  AC50: 8.01 µM

## O=C1C(=O)c2ccccc2C(O)=C1CCCCl
  AC50: 35.6 µM

## COc1cc(C(c2c(C)[nH][nH]c2=O)c2c(C)[nH][nH]c2=O)ccc1OS(=O)(=O)c1ccc(C)cc1
  AC50: 8.13 µM

## CCOC(=O)c1nnn(-c2nonc2-n2cccc2)c1CCl
  AC50: 26.6 µM

## CCOC(=O)C(CC)Sc1ncnc2c1nnn2-c1ccc(F)cc1 (stereo not given)
  AC50: > 38 µM (inactive)

## COc1ccccc1N1C(=O)Cc2ccccc2C1=O
  AC50: > 38 µM (inactive)

## COc1ccc(C(=O)/C=C/Sc2nc3ccccc3o2)cc1
  AC50: 38.6 µM

## CC(C)(C)NC(=O)C(c1ccc(Cl)cc1)N(Cc1ccco1)C(=O)CCl (stereo not given)
  AC50: 11.6 µM

## COc1ccc(-c2cc(CNC(=O)CCl)on2)cc1
  AC50: 16.1 µM

## COCc1[nH]nc2c1C(c1cccc(OC)c1)C(C#N)=C(N)O2 (stereo not given)
  AC50: > 38 µM (inactive)

## CN1C(=O)/C(=N\OC(=O)c2cccc3ccccc23)c2ccccc21
  AC50: > 38 µM (inactive)

## CCOc1cc(NC2CS(=O)(=O)CC2O)c(OCC)cc1NC(=O)c1ccccc1 (stereo not given)
  AC50: > 38 µM (inactive)

## CCSC1(SCC)N=C(N)C2(C#N)C(c3ccc(F)cc3)C12C#N (stereo not given)
  AC50: 38.3 µM

## CCOc1ccc(N2C(=O)/C(=C\c3ccc(O)c(OC)c3)S(=O)(=O)C2c2cccc([N+](=O)[O-])c2)cc1 (stereo not given)
  AC50: > 38 µM (inactive)

## COC(=O)C1=C(C)NC(=S)NC1c1ccc(OC(=O)c2ccco2)cc1 (stereo not given)
  AC50: > 38 µM (inactive)

## O=C(CCl)Nc1c2c(nn1-c1ccccc1)CSC2
  AC50: 29.2 µM

## O=C1C(Cc2ccccc2)Nc2ncnc(N3CCc4ccccc4C3)c2N1Cc1ccc(Cl)cc1 (stereo not given)
  AC50: > 38 µM (inactive)

## CN(Cc1ccc(Cl)cc1)C(=O)CCl
  AC50: 10.2 µM

## O=C(CCl)Nc1cccc(-c2cnc3ccccc3n2)c1
  AC50: 16.5 µM

## O=C(NCc1ccc2c(c1)OCO2)c1nc(S(=O)(=O)Cc2ccccc2F)ncc1Cl
  AC50: > 38 µM (inactive)

## O=[N+]([O-])c1ccc(N2CCCC(C(F)(F)F)C2)c2ccncc12 (stereo not given)
  AC50: > 38 µM (inactive)

## COc1ccccc1CN1CCSCC1
  AC50: > 38 µM (inactive)

## CSc1nc(=S)n(-c2ccc([N+](=O)[O-])cc2)c(C)c1C(C)=O
  AC50: > 38 µM (inactive)

## O=C(CCl)N1CCCC1c1ccc2c(c1)OCCO2 (stereo not given)
  AC50: 4.86 µM

## COc1ccc(C2=NN(c3nc(C)cc(C)n3)C(=O)C2)cc1
  AC50: 5.75 µM

## Cc1ccc2c(c1)c1nnc(SCC(=O)Nc3ccc(N(C)C)cc3)nc1n2CC(=O)O
  AC50: > 38 µM (inactive)

## CC(=O)Nc1ccccc1NC(=O)C/C(C)=N/NC(=O)C(=O)N1CCCCC1
  AC50: > 38 µM (inactive)

## Cc1cccc(NC2=C(NC(=O)c3ccccc3)C(=O)c3ccccc3C2=O)c1
  AC50: 9.5 µM

## Cc1[nH]nc2c1C(c1ccsc1C)C(C#N)=C(N)O2 (stereo not given)
  AC50: > 38 µM (inactive)

## COc1ccc2ccc3c(c2c1)N=CC1(O3)N(C)c2ccccc2C1(C)C (stereo not given)
  AC50: 4.49 µM

## CCCOC(=O)c1ccc(OC(=O)c2ccco2)cc1
  AC50: > 38 µM (inactive)

## Cc1ccc(S(=O)(=O)N[C@@H](CCCCN)C(=O)CCl)cc1
  AC50: > 38 µM (inactive)

## CC1=NN(c2ccccc2)C(=O)C1/C=C1\C(=O)NC(=O)N(c2ccc(C)c(C)c2)C1=O (stereo not given)
  AC50: 26.1 µM

## O=C1C=C(N2CCOCC2)c2ccccc2C1=O
  AC50: 4.51 µM

## CCCc1nnc(NC(=O)c2nc(S(=O)(=O)Cc3cccc(C)c3)ncc2Cl)s1
  AC50: > 38 µM (inactive)

## Cn1ccnc1Sc1cc(NCCCO)c([N+](=O)[O-])c2nonc12
  AC50: > 38 µM (inactive)

## COc1ccc(-c2[nH]nc3c2C(c2ccncc2)C(C#N)=C(N)O3)cc1 (stereo not given)
  AC50: 39.9 µM
